Laboratory results taken from patent publication US6737383B1, “Herbicidal oxadiazolidines” (priority 1999, dated 2004).

Columns and labels:
[1] = test system: bedstraw; experiment: Test B pre/postemergence bedstraw; format: in vivo, Galium aparine
Procedure, shortened: (§1)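 Test chemicals in a non-phytotoxic solvent mixture with surfactant were sprayed preemergence onto planted seeds and postemergence onto plants 2 to 18 cm tall (1- to 4-leaf stage). After twelve to sixteen days in a greenhouse, injury was visually rated against untreated controls from 0 (no effect) to 10 (complete control).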

[2] = test system: blackgrass; experiment: Test B pre/postemergence blackgrass; format: in vivo, Alopecurus myosuroides
Procedure, shortened: as §1

[3] = test system: surinam grass; experiment: Test B pre/postemergence surinam grass; format: in vivo, Brachiaria decumbens
Procedure, shortened: as §1

[4] = test system: cocklebur; experiment: Test B pre/postemergence cocklebur; format: in vivo, Xanthium strumarium
Procedure, shortened: as §1

[5] = test system: corn; experiment: Test B pre/postemergence corn; format: in vivo, Zea mays
Procedure, shortened: as §1

[6] = test system: crabgrass; experiment: Test B pre/postemergence crabgrass; format: in vivo, Digitaria sanguinalis
Procedure, shortened: as §1

[7] = test system: giant foxtail; experiment: Test B pre/postemergence giant foxtail; format: in vivo, Setaria faberii
Procedure, shortened: as §1

[8] = test system: morningglory; experiment: Test B pre/postemergence morningglory; format: in vivo, Ipomoea hederacea
Procedure, shortened: as §1

[9] = test system: pigweed; experiment: Test B pre/postemergence pigweed; format: in vivo, Amaranthus retroflexus
Procedure, shortened: as §1

[10] = test system: soybean; experiment: Test B pre/postemergence soybean; format: in vivo, Glycine max
Procedure, shortened: as §1

[11] = test system: velvetleaf; experiment: Test B pre/postemergence velvetleaf; format: in vivo, Abutilon theophrasti
Procedure, shortened: as §1

[12] = test system: wheat; experiment: Test B pre/postemergence wheat; format: in vivo, Triticum aestivum
Procedure, shortened: as §1

[13] = test system: wild oat; experiment: Test B pre/postemergence wild oat; format: in vivo, Avena fatua
Procedure, shortened: as §1

[14] = test system: rice; experiment: Test B flood test rice; format: in vivo, Oryza sativa
Procedure, shortened: (§2)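 Read-out is a visual response score from 0 (no effect) to 10 (complete control), assigned by comparison with untreated controls. Treatment was applied at the 2-leaf stage, and plants stayed in the greenhouse for twelve to sixteen days before scoring.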

[15] = test system: smallflower flatsedge; experiment: Test B flood test smallflower flatsedge; format: in vivo, Cyperus difformis
Procedure, shortened: as §2

[16] = test system: bamyardgrass; experiment: Test B flood test barnyardgrass; format: in vivo, Echinochloa crus-galli
Procedure, shortened: as §2

[17] = Preemergence, Rate 62 g/ha, scale of 0 to 10 where 0 is no effect and 10 is complete control
[18] = Preemergence, Rate 125 g/ha, 0 is no effect, 10 is complete control
[19] = Preemergence, Rate 250 g/ha, scale 0 to 10, 0 is no effect, 10 is complete control
[20] = Rate 62 g/ha, Postemergence, scale of 0 to 10 where 0 is no effect and 10 is complete control
[21] = Rate 125 g/ha, Postemergence, scale 0 to 10
[22] = Rate 500 g/ha, Postemergence, scale 0 to 10
[23] = Preemergence, Rate 500 g/ha, scale 0 to 10 (0 no effect, 10 complete control)
[24] = Rate 62 g/ha, headed Pre-emergence (flood test species), scale 0 to 10 (0 no effect, 10 complete control)
[25] = Rate 125 g/ha, Pre-emergence, flood test species, scale 0 to 10 where 0 is no effect and 10 is complete control
[26] = Rate 250 g/ha, Pre-emergence, flood-test species, scale 0 to 10, 0 is no effect, 10 is complete control
[27] = Rate 500 g/ha, headed Pre-emergence (flood test species), scale 0 to 10 (0 no effect, 10 complete control)

COc1nc(OC)nc(N(C(=O)n2oc(=O)n(-c3ccccc3C)c2=O)C(C)C)n1 [Compound 181]
0: Bedstraw plant response rating [1, 17] | Bedstraw plant response rating (0 to 10 scale) [1, 18] | Bedstraw plant response rating [1, 19] | Bedstraw plant response rating [1, 20] | Bedstraw plant response rating [1, 21] | Plant response rating (0 to 10; 0 is no effect, 10 is complete control), Bedstraw ([1]; Rate 250 g/ha, Postemergence) | Bedstraw plant response rating [1, 22] | Blackgrass plant response rating [2, 17] | Blackgrass plant response rating (0 to 10 scale) [2, 18] | Blackgrass plant response rating [2, 19] | Blackgrass plant response rating [2, 23] | Blackgrass plant response rating [2, 20] | Blackgrass plant response rating [2, 21] | Plant response rating (0 to 10; 0 is no effect, 10 is complete control), Blackgrass ([2]; Rate 250 g/ha, Postemergence) | Blackgrass plant response rating [2, 22] | B. signalgrass plant response rating [3, 17] | B. signalgrass plant response rating (0 to 10 scale) [3, 18] | B. signalgrass plant response rating [3, 19] | B. signalgrass plant response rating [3, 23] | B. signalgrass plant response rating [3, 20] | B. signalgrass plant response rating ([3]; Rate 125 g/ha, Postemergence, scale 0 (no effect) to 10 (complete control)) | Plant response rating, B. signalgrass ([3]; Rate 250 g/ha, Postemergence, scale 0 to 10, 0 is no effect, 10 is complete control) | B. signalgrass plant response rating ([3]; Rate 500 g/ha, Postemergence, scale 0 to 10, 0 no effect, 10 complete control) | Cocklebur plant response rating [4, 17] | Cocklebur plant response rating (0 to 10 scale) [4, 18] | Cocklebur plant response rating [4, 19] | Cocklebur plant response rating [4, 23] | Cocklebur plant response rating [4, 20] | Cocklebur plant response rating [4, 21] | Plant response rating (0 to 10; 0 is no effect, 10 is complete control), Cocklebur ([4]; Rate 250 g/ha, Postemergence) | Cocklebur plant response rating [4, 22] | Corn plant response rating [5, 17] | Corn plant response rating (0 to 10 scale) [5, 18] | Corn plant response rating [5, 19] | Corn plant response rating [5, 23] | Corn plant response rating [5, 20] | Corn plant response rating [5, 21] | Plant response rating (0 to 10; 0 is no effect, 10 is complete control), Corn ([5]; Rate 250 g/ha, Postemergence) | Corn plant response rating [5, 22] | Crabgrass plant response rating [6, 17] | Crabgrass plant response rating (0 to 10 scale) [6, 18] | Crabgrass plant response rating [6, 19] | Crabgrass plant response rating [6, 23] | Crabgrass plant response rating [6, 20] | Crabgrass plant response rating [6, 21] | Plant response rating (0 to 10; 0 is no effect, 10 is complete control), Crabgrass ([6]; Rate 250 g/ha, Postemergence) | Crabgrass plant response rating [6, 22] | Giant foxtail plant response rating [7, 17] | Giant foxtail plant response rating (0 to 10 scale) [7, 18] | Giant foxtail plant response rating [7, 19] | Giant foxtail plant response rating [7, 23] | Giant foxtail plant response rating [7, 20] | Giant foxtail plant response rating [7, 21] | Plant response rating (0 to 10; 0 is no effect, 10 is complete control), Giant foxtail ([7]; Rate 250 g/ha, Postemergence) | Giant foxtail plant response rating [7, 22] | Morningglory plant response rating [8, 17] | Morningglory plant response rating (0 to 10 scale) [8, 18] | Morningglory plant response rating [8, 19] | Morningglory plant response rating [8, 23] | Morningglory plant response rating [8, 20] | Morningglory plant response rating [8, 21] | Plant response rating (0 to 10; 0 is no effect, 10 is complete control), Morningglory ([8]; Rate 250 g/ha, Postemergence) | Morningglory plant response rating [8, 22] | Redroot pigweed plant response rating [9, 17] | Redroot pigweed plant response rating (0 to 10 scale) [9, 18] | Redroot pigweed plant response rating [9, 19] | Redroot pigweed plant response rating [9, 23] | Redroot pigweed plant response rating [9, 20] | Redroot pigweed plant response rating [9, 21] | Plant response rating (0 to 10; 0 is no effect, 10 is complete control), Redroot pigweed ([9]; Rate 250 g/ha, Postemergence) | Redroot pigweed plant response rating [9, 22] | Soybean plant response rating [10, 17] | Soybean plant response rating (0 to 10 scale) [10, 18] | Soybean plant response rating [10, 19] | Soybean plant response rating [10, 23] | Soybean plant response rating [10, 20] | Soybean plant response rating [10, 21] | Plant response rating (0 to 10; 0 is no effect, 10 is complete control), Soybean ([10]; Rate 250 g/ha, Postemergence) | Soybean plant response rating [10, 22] | Velvetleaf plant response rating [11, 17] | Velvetleaf plant response rating [11, 19] | Velvetleaf plant response rating [11, 23] | Velvetleaf plant response rating [11, 21] | Plant response rating (0 to 10; 0 is no effect, 10 is complete control), Velvetleaf ([11]; Rate 250 g/ha, Postemergence) | Velvetleaf plant response rating [11, 22] | Wheat plant response rating [12, 17] | Wheat plant response rating [12, 19] | Wheat plant response rating [12, 23] | Wheat plant response rating [12, 21] | Plant response rating (0 to 10; 0 is no effect, 10 is complete control), Wheat ([12]; Rate 250 g/ha, Postemergence) | Wheat plant response rating [12, 22] | Wild oats plant response rating [13, 17] | Wild oats plant response rating [13, 19] | Wild oats plant response rating [13, 23] | Wild oats plant response rating [13, 21] | Plant response rating (0 to 10; 0 is no effect, 10 is complete control), Wild oats ([13]; Rate 250 g/ha, Postemergence) | Wild oats plant response rating [13, 22] | Rice plant response rating [14, 24] | Rice plant response rating [14, 25] | Rice plant response rating [14, 26] | Plant response rating, Rice [14, 27] | S. Flatsedge plant response rating [15, 24] | S. Flatsedge plant response rating [15, 25] | S. Flatsedge plant response rating [15, 26] | S. Flatsedge plant response rating ([15]; Rate 500 g/ha, Pre-emergence, flood test species, scale 0 to 10 (0 no effect, 10 complete control)) | Barnyardgrass plant response rating [16, 24] | Barnyardgrass plant response rating [16, 25] | Barnyardgrass plant response rating [16, 26] | Plant response rating, Barnyardgrass [16, 27]
